From PubChem BioAssay AID2060325 (Molecular Pharmacology Branch, DTP, NCI, 2025)

System: SK-OV-3 multi-cell spheroids, viability
Experiment: Anticancer human tumor SK-OV-3 cell line growth inhibition [IpAb];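 as to viability, T/C: viability read after seven days of drug exposure; percent of DMSO vehicle control luminescence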
Details: for IC50: curve of first compound; for viability, T/C: stronger effect = lower value
In short: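 Multi-cell spheroids of 60% tumour cells, 25% HUVEC and 15% MSC in ultra-low-attachment U-bottom wells, treated with agents combined with ipatasertib or abemaciclib. Half-log ranges top out near clinical Cmax, or 10 microM when Cmax is unknown.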

[1] = second compound 0.1 µM, first compound 0.00316 µM
[2] = second compound 0.1 µM, first compound 0.01 µM
[3] = second compound 0.1 µM, first compound 0.0316 µM
[4] = second compound 0.1 µM, first compound 0.1 µM
[5] = second compound 0.316 µM, first compound 0.00316 µM
[6] = second compound 0.316 µM, first compound 0.01 µM
[7] = second compound 0.316 µM, first compound 0.0316 µM
[8] = second compound 0.316 µM, first compound 0.1 µM
[9] = second compound 1 µM, first compound 0.00316 µM
[10] = second compound 1 µM, first compound 0.01 µM
[11] = second compound 1 µM, first compound 0.0316 µM
[12] = second compound 1 µM, first compound 0.1 µM
[13] = second compound 3.16 µM, first compound 0.00316 µM
[14] = second compound 3.16 µM, first compound 0.01 µM
[15] = second compound 3.16 µM, first compound 0.0316 µM
[16] = second compound 3.16 µM, first compound 0.1 µM
[17] = second compound 10 µM, first compound 0.00316 µM
[18] = second compound 10 µM, first compound 0.01 µM
[19] = second compound 10 µM, first compound 0.0316 µM
[20] = second compound 10 µM, first compound 0.1 µM
[21] = second compound 0.1 µM, first compound 0.316 µM
[22] = second compound 0.1 µM, first compound 1 µM
[23] = second compound 0.1 µM, first compound 3.16 µM
[24] = second compound 0.1 µM, first compound 10 µM
[25] = second compound 0.316 µM, first compound 0.316 µM
[26] = second compound 0.316 µM, first compound 1 µM
[27] = second compound 0.316 µM, first compound 3.16 µM
[28] = second compound 0.316 µM, first compound 10 µM
[29] = second compound 1 µM, first compound 0.316 µM
[30] = second compound 1 µM, first compound 1 µM
[31] = second compound 1 µM, first compound 3.16 µM
[32] = second compound 1 µM, first compound 10 µM
[33] = second compound 3.16 µM, first compound 0.316 µM
[34] = second compound 3.16 µM, first compound 1 µM
[35] = second compound 3.16 µM, first compound 3.16 µM
[36] = second compound 3.16 µM, first compound 10 µM
[37] = second compound 10 µM, first compound 0.316 µM
[38] = second compound 10 µM, first compound 1 µM
[39] = second compound 10 µM, first compound 3.16 µM
[40] = second compound 10 µM, first compound 10 µM

Row | SMILES | IC50 (second compound 0.1 µM) [nM] | IC50 (second compound 0.316 µM) [nM] | IC50 (second compound 1 µM) [nM] | IC50 (second compound 3.16 µM) [nM] | IC50 (second compound 10 µM) [nM] | viability, T/C [3] [%] | viability, T/C [4] [%] | viability, T/C [7] [%] | viability, T/C [8] [%] | viability, T/C [11] [%] | viability, T/C [12] [%] | viability, T/C [15] [%] | viability, T/C [16] [%] | viability, T/C [19] [%] | viability, T/C [20] [%] | viability, T/C [21] [%] | viability, T/C [22] [%] | viability, T/C [25] [%] | viability, T/C [26] [%] | viability, T/C [29] [%] | further results
1 | CC(C)n1nc(-c2ccc3oc(N)nc3c2)c2c(N)ncnc21 + CC(C)NCC(C(=O)N1CCN(c2ncnc3c2C(C)CC3O)CC1)c1ccc(Cl)cc1 | 0.623 | < 0.316 | < 0.316 | < 0.316 | < 0.316 | 8.65 | 6.5 | 5.66 | 4.86 | 4.57 | 4.78 | 3.82 | 3.94 | 2.31 | 3.23 |  |  |  |  |  | viability, T/C (second compound 0.1 µM, first compound 0.000316 µM): 59.2%; viability, T/C (second compound 0.1 µM, first compound 0.001 µM): 43.4%; viability, T/C [1]: 26.4%; viability, T/C [2]: 13.7%; viability, T/C (second compound 0.316 µM, first compound 0.000316 µM): 32%; viability, T/C (second compound 0.316 µM, first compound 0.001 µM): 24.6%; viability, T/C [5]: 19.7%; viability, T/C [6]: 9.18%; viability, T/C (second compound 1 µM, first compound 0.000316 µM): 18.7%; viability, T/C (second compound 1 µM, first compound 0.001 µM): 14.1%; viability, T/C [9]: 12%; viability, T/C [10]: 7.26%; viability, T/C (second compound 3.16 µM, first compound 0.000316 µM): 14.5%; viability, T/C (second compound 3.16 µM, first compound 0.001 µM): 12.7%; viability, T/C [13]: 9.97%; viability, T/C [14]: 5.51%; viability, T/C (second compound 10 µM, first compound 0.000316 µM): 8.69%; viability, T/C (second compound 10 µM, first compound 0.001 µM): 9.03%; viability, T/C [17]: 6.95%; viability, T/C [18]: 3.56%
2 | CC1(C)CCC(CN2CCN(c3ccc(C(=O)NS(=O)(=O)c4ccc(NCC5CCOCC5)c([N+](=O)[O-])c4)c(Oc4cnc5[nH]ccc5c4)c3)CC2)=C(c2ccc(Cl)cc2)C1 + CC(C)NCC(C(=O)N1CCN(c2ncnc3c2C(C)CC3O)CC1)c1ccc(Cl)cc1 | 3200 | < 31.6 | < 31.6 | < 31.6 | < 31.6 | 64.3 | 70.6 | 33.6 | 38.2 | 21.1 | 27.3 | 15.5 | 15.3 | 7.25 | 9.06 | 68 | 58.6 | 31.7 | 31.6 | 21.6 | viability, T/C [23]: 51.2%; viability, T/C [24]: 26.1%; viability, T/C [27]: 28%; viability, T/C [28]: 18.6%; viability, T/C [30]: 18.9%; viability, T/C [31]: 17%; viability, T/C [32]: 13.7%; viability, T/C [33]: 14.2%; viability, T/C [34]: 13.9%; viability, T/C [35]: 11.1%; viability, T/C [36]: 7.06%; viability, T/C [37]: 8.25%; viability, T/C [38]: 6.89%; viability, T/C [39]: 5.18%; viability, T/C [40]: 4.58%
3 | CCCS(=O)(=O)Nc1ccc(F)c(C(=O)c2c[nH]c3ncc(-c4ccc(Cl)cc4)cc23)c1F + CC(C)NCC(C(=O)N1CCN(c2ncnc3c2C(C)CC3O)CC1)c1ccc(Cl)cc1 | 4770 | < 31.6 | < 31.6 | < 31.6 | < 31.6 | 70.2 | 74.1 | 38.8 | 36.5 | 20.5 | 22.4 | 17.1 | 18.6 | 8.73 | 9.5 | 67.5 | 73.9 | 38.1 | 36.1 | 21.3 | viability, T/C [23]: 64.3%; viability, T/C [24]: 23.3%; viability, T/C [27]: 28.2%; viability, T/C [28]: 13.9%; viability, T/C [30]: 17.9%; viability, T/C [31]: 15.3%; viability, T/C [32]: 6.91%; viability, T/C [33]: 15.7%; viability, T/C [34]: 15.7%; viability, T/C [35]: 15.1%; viability, T/C [36]: 6.79%; viability, T/C [37]: 9.69%; viability, T/C [38]: 8.84%; viability, T/C [39]: 9.71%; viability, T/C [40]: 2.52%
4 | COc1c(OCCCN2CCOCC2)ccc2c3n(c(=NC(=O)c4cnc(N)nc4)nc12)CCN3 + CC(C)NCC(C(=O)N1CCN(c2ncnc3c2C(C)CC3O)CC1)c1ccc(Cl)cc1 | 3.82 | < 3.16 | < 3.16 | < 3.16 | < 3.16 | 12.1 | 6.59 | 9.72 | 7.09 | 8.59 | 6.92 | 8.55 | 6.85 | 5.36 | 4.04 | 5.28 | 3.75 | 5.47 | 3.33 | 4.3 | viability, T/C [1]: 53.7%; viability, T/C [2]: 31.3%; viability, T/C [5]: 29.5%; viability, T/C [6]: 18.4%; viability, T/C [9]: 17.3%; viability, T/C [10]: 11%; viability, T/C [30]: 2.76%; viability, T/C [13]: 12.3%; viability, T/C [14]: 9.35%; viability, T/C [33]: 4.48%; viability, T/C [34]: 2.41%; viability, T/C [17]: 6.56%; viability, T/C [18]: 5.87%; viability, T/C [37]: 2.89%; viability, T/C [38]: 1.6%
